Patent US9593108B2, “Compounds and methods for antiviral treatment” (PTC Therapeutics, Inc., priority 2009, dated 2017)

Columns and labels:
[1] = test system: HCV replicon RNA (GenBank Accession No. AJ242654); assay: HCV Replicon Assay (replicon RNA reduction and/or Fluc reporter signal); type: cell-based, Hepatitis C virus; conditions: Hepatitis C virus, 72 h, replicon-containing cells cultured with test compound for up to 3 days
Method in brief: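 Bicistronic replicon-containing cells cultured with compound for up to 3 days, with interferon as positive control. Inhibition quantified by replicon RNA reduction and/or Fluc reporter signal; IC50 values generally derived from replicon RNA reduction.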

| Structure (SMILES) | IC50 [1] | melting point |
| --- | --- | --- |
| CC(C)(C)NS(=O)(=O)c1ccc(-c2c(C#N)c3cc(F)cnc3n2-c2cnccn2)nc1 [Cpd 521, N-tert-butyl-6-[3-cyano-5-fluoro-1-(pyrazin-2-yl)-1H-pyrrolo[2,3-b]pyridin-2-yl]pyridine-3-sulfonamide] | < 500 nM | 245 to 247 °C |
| CC(C)(C)NS(=O)(=O)c1ccc(-c2c(C#N)c3cc(F)cnc3n2-c2ccccn2)nc1 [Cpd 522, N-tert-butyl-6-[3-cyano-5-fluoro-1-(pyridin-2-yl)-1H-pyrrolo[2,3-b]pyridin-2-yl]pyridine-3-sulfonamide] | < 500 nM | 202.2 to 204.3 °C |
| CC(C)(C)NS(=O)(=O)c1ccc(-c2c(C(N)=O)c3cc(C(F)(F)F)cnc3n2-c2ccccc2)nc1 [Cpd 523, 2-[5-(tert-butylsulfamoyl)pyridin-2-yl]-1-phenyl-5-(trifluoromethyl)-1H-pyrrolo[2,3-b]pyridine-3-carboxamide] | < 500 nM | 241.8 to 243 °C |
| Cc1cnc2c(c1)c(C#N)c(-c1ccc(S(=O)(=O)NC(C)(C)C)cn1)n2-c1ccccc1 [Cpd 524, N-tert-butyl-6-(3-cyano-5-methyl-1-phenyl-1H-pyrrolo[2,3-b]pyridin-2-yl)pyridine-3-sulfonamide] | 500 to 2000 nM | 228.6 to 229.3 °C |
| Cc1cnc2c(c1)c(C#N)c(-c1ccc(S(=O)(=O)NC(C)(C)C)cn1)n2-c1ccccn1 [Cpd 525, N-tert-butyl-6-[3-cyano-5-methyl-1-(pyridin-2-yl)-1H-pyrrolo[2,3-b]pyridin-2-yl]pyridine-3-sulfonamide] | 500 to 2000 nM | 214.2 to 215.4 °C |
| CC(C)(C)NS(=O)(=O)c1ccc(-c2c(C#N)c3cc(C(F)(F)F)cnc3n2-c2cnccn2)nc1 [Cpd 526, N-tert-butyl-6-[3-cyano-1-(pyrazin-2-yl)-5-(trifluoromethyl)-1H-pyrrolo[2,3-b]pyridin-2-yl]pyridine-3-sulfonamide] | < 500 nM | 214.2 to 215.4 °C |
| CC(C)(C)NS(=O)(=O)c1ccc(-c2c(C(N)=O)c3cc(F)cnc3n2-c2ccccc2)nc1 [Cpd 527, 2-[5-(tert-butylsulfamoyl)pyridin-2-yl]-5-fluoro-1-phenyl-1H-pyrrolo[2,3-b]pyridine-3-carboxamide] | 500 to 2000 nM | 275.2 to 276.9 °C |
